These results are taken from patent publication US9636311B2, “N,N′-di-1 naphthylguanidine HCl (NAGH) and N,N′-di-p-nitrophenylguanidine HCl (NAD) treatment for stroke at delayed timepoints” (University of South Florida, priority 2012, dated 2017).

Assay [1] relates to rats following MCAO. Description: Brain infarction quantification (Nissl thionin) after MCAO. The assay is classed as in vivo, rat. The conditions noted are these: s.c. daily for 3 days from 24 h post-MCAO (NAGH 0.86 mg/kg, NAD 2.8 mg/kg); 30 days post MCAO; mean±SEM. On the procedure:
All animal procedures were performed according to the University of South Florida guidelines for the care and use of animals and protocols were reviewed and approved by the Institutional Animal Care and Use Committee and adhered to the NIH guidelines for the care and use of animals. Adult male Sprague Dawley rats (Harlan) weighing about 250-300 g at the time of surgery were used for the study. All animals were housed two per cage in a temperature controlled room, under a 12 hour light-dark cycle, and given access to water and food ad libitum. Animals were monitored daily for wellness and biweekly for weight loss. For the NAGH studies, a total of 84 animals were randomly assigned to 2 groups: MCAO only (n=42) and rat treated with NAGH (n=42) beginning 24 hour after MCAO.
(§1) MCAO surgeries were performed as described elsewhere (Vendrame M, Cassady C J, Newcomb J, Butler T, Pennypacker K R, Zigova T, et al. Stroke. 2004; 35:2390-2395). Briefly, rats were anesthetized with isoflurane, and the right common carotid and external carotid arteries were exposed using blunt dissection techniques. The vagus nerve was separated from common carotid artery and the external carotid artery was ligated proximally, and transected near the bifurcation. An embolus 40 mm in length (4.0 siliconized monofilament) was inserted into the external carotid artery and fed distally into the origin of the middle cerebral artery (˜25 mm from insertion) through the internal carotid artery. Blood samples were taken and analyzed using an i-STAT handheld analyzer for hemoglobin, hematocrit, ionized calcium, glucose, sodium, potassium, pH, pCO2, HCO3, TCO2, base excess, pO2, and O2. Cerebral blood flow was recorded using a Laser Doppler Monitor (Moor Instruments) to verify occlusion. Afterwards, the embolus was ligated permanently into the vessel and the neck incision was closed. Animals were treated with Ketoprofen IM (10 mg/kg) for three days post-surgery.
(§2) For the NAGH studies, vehicle or NAGH were prepared fresh each day. Daily subcutaneous injections (s.c) were administered beginning about 24 hours after MCAO and continued daily to about 72 hours post-surgery (FIG. 1). Animals received a total of 3 injections. A total of 84 animals were randomly assigned into 2 groups: Rats treated with vehicle (40% DMSO in sterile saline, n=42), or rats treated with 0.86 mg/kg NAGH (n=42).
For the studies with other compounds based on the structure of DTG, twenty-four hours after MCAO, the rats began a sigma agonist treatment regimen. Vehicle or drug was prepared fresh each day. […]
Infarct size was determined by Nissl thionin staining. […]

In assay [2] the test system is rats following MCAO. The assay is described as follows: White matter injury, Luxol Fast Blue staining after MCAO. The assay is classed as in vivo, rat. The conditions noted are these: 30 days post-stroke. On the procedure: as §1, §2
To evaluate white matter injury, coronal brain sections from each the animals were stained with Luxol Fast Blue (LFB; Sigma-Aldrich). For Luxol Fast Blue (LFB) staining, slides were dehydrated in 95% ethanol and incubated in LFB solution at 56° C. overnight. The following day slides were rinsed in 95% ethanol and distilled water and differentiated in 0.1% lithium carbonate solution for 20 s followed by 70% ethyl alcohol for 30 s, and finally rinsed in distilled water. After complete gray and white matter differentiation, slides were dehydrated and placed under coverslips with DPX. The quantitative analysis for demyelination in LFB staining section was performed as described previously with some modification (Virgili, Espinosa-Parrilla et al. 2011; Yu, Gong et al. 2012). LFB stained area was measured on the randomly selected sections (n=21-23 animals/group) to assess demyelination. The extent of the LFB positive area was quantified using a pixel grayscale approach in ImageJ software (National Institute of Health, USA). […] Once calibrated, the amount of LFB staining was measured as the percentage of hemispheric area using ImageJ software.

`Cl.N=C(Nc1cccc2ccccc12)Nc1cccc2ccccc12` [NAGH, N,N′-di-1-Naphthylguanidine hydrochloride]: the “Infarct volume (percent of hemisphere)” value in assay [1] is 13.58±2.3%. Besides, the “White matter tracts (LFB) vs DMSO” value in assay [2] is listed as “white matter tracts were more intact”. In addition, the “Percent change in LFB staining from contralateral to ipsilateral hemisphere” value in assay [2] (p<0.05 vs DMSO) was −0.73+7.7%. In addition, in assay [2] (NAGH 0.86 mg/kg s.c. x3, n=22), the “LFB staining, ischemic hemisphere (percentage of hemispheric area)” value was found to be 10.32±0.48% and the “LFB staining, non-ischemic hemisphere (percentage of hemispheric area)” value was 9.81±0.38%.
